Measured values from patent US6613931B1 (priority 1999, dated 2003).

Assays:
Lemna paucicostata = test: Herbicidal action: growth inhibition of duck weed (Lemna); format: in vivo; settings: Lemna aequinoctialis, increase in leaf area after 8-10 days, 25° C., permanent light, read-out: Growth inhibition (% relative to the control)
Procedure: The herbicidal action of the compounds according to the invention is investigated using the representative test model below. The effect of the test substances on the growth of duck weed is determined by the following method:
The duct weed Lemna paucicostata was grown under sterile conditions and 250 ml glass vessels containing 100 ml of inorganic nutrient solution and supplemented with 1% sucrose, as described by Grossmann et al., Pesticide Science 35, (1992), 283-289. At the beginning of the test, 150 μl of a solution of active compound in acetone (stock solution: 100-fold concentrated) were pipetted into Petri dishes (diameter 6 cm, height 1.5 cm; Greiner, Frickenhausen) containing 15 ml of nutrient solution. (without added sucrose). Only the solvent component of the active compound solution was added to the nutrient solution for the control tests. Then, 4 Lemna plants were introduced into each dish, the dishes were covered with lids and incubated under permanent light conditions at 25° C. After 8-10 days, the increase in leaf area was determined using an imaging apparatus (Imago, Compulog Computer Syst., Böblingen) as growth parameter, and this was used to calculate the growth inhibition as a percentage relative to the control.

Plasmopara viticola = test: Fungicidal action: activity against Plasmopara viticola on grapevines (persistency); format: in vivo; settings: grapevines c.v. Müller-Thurgau, inoculated 7 days after spraying, undersides of leaves assessed visually, untreated control 90
Text: Activity Against Plasmopara viticola
Leaves of potted grapevines c.v. “Müller-Thurgau” were sprayed to run off point with an aqueous preparation of active compound which had been prepared using a stock solution comprising 10% of active compound, 63% of cyclohexanone and 27% of emulsifier. In order to be able to assess the persistency of the substances, the plants were kept for 7 days in a greenhouse after the spray coating had dried on. Only then were the leaves inoculated with an aqueous zoospore suspension of Plasmopara viticola. The grapevines were then initially kept in a water vapor-saturated chamber at 24° C. for 48 hours and then in a greenhouse at 20 and 30° C. for 5 days. After this period of time, the plants were once more kept in a humid chamber for 16 hours to promote sporangiophore eruption. The extent of the infection on the undersides of the leaves was then determined visually.

Row | Structure (SMILES) | inhibition at 1 µM (Lemna paucicostata; concentration 1 μmolar) | inhibition at 10 µM (Lemna paucicostata; concentration 10 μmolar) | inhibition at 100 µM (Lemna paucicostata; concentration 100 μmolar) | % infection of the leaves after application of an aqueous preparation containing 250 ppm of active compound (Plasmopara viticola)
1 | N#CC(C(=O)Nc1ccc(Cl)c(Cl)c1)c1ccccc1 (stereo not shown) [A, N-(3,4-dichlorophenyl)-2-cyano-2-phenylacetamide] | 40% | 93% | 100% | –
2 | N#CC(C(=O)Nc1cccc(Cl)c1)c1ccccc1 (stereo not shown) [No. 2, N-(3-chlorophenyl)-2-cyano-2-phenylacetamide] | – | – | – | 0%
